Assay: osmotic coefficient (dimensionless); mn = molality of the nth substance listed, in mol/kg
Conditions: 101 kPa, Liquid, isopiestic method

C1CN2CN3CCN(CN1C3)C2 [1,3,6,8-tetraazatricyclo[4.4.1.1(3,8)]dodecane] + O
Conditions | osmotic coefficient
288.15 K, m1 = 0.2149 | 0.9605
288.15 K, m1 = 0.2154 | 0.9583
288.15 K, m1 = 0.3036 | 0.9533
288.15 K, m1 = 0.3041 | 0.9518
288.15 K, m1 = 0.5049 | 0.9571
288.15 K, m1 = 0.5066 | 0.9563
288.15 K, m1 = 0.603 | 0.9824
288.15 K, m1 = 0.604 | 0.9816
288.15 K, m1 = 0.7629 | 1.016
288.15 K, m1 = 0.7638 | 1.015
288.15 K, m1 = 1.011 | 1.1
293.15 K, m1 = 0.2023 | 0.991
293.15 K, m1 = 0.2031 | 0.9887
293.15 K, m1 = 0.3454 | 0.9917
293.15 K, m1 = 0.3458 | 0.9907
293.15 K, m1 = 0.5003 | 0.993
293.15 K, m1 = 0.5009 | 0.9919
293.15 K, m1 = 0.7613 | 1.035
293.15 K, m1 = 0.7629 | 1.033
293.15 K, m1 = 0.9099 | 1.056
293.15 K, m1 = 0.9108 | 1.055
293.15 K, m1 = 1.068 | 1.119
293.15 K, m1 = 1.069 | 1.118
298.15 K, m1 = 0.2201 | 1.014
298.15 K, m1 = 0.2205 | 1.012
298.15 K, m1 = 0.3086 | 1.017
298.15 K, m1 = 0.3087 | 1.016
298.15 K, m1 = 0.5052 | 1.028
298.15 K, m1 = 0.5055 | 1.027
298.15 K, m1 = 0.562 | 1.032
298.15 K, m1 = 0.5624 | 1.032
298.15 K, m1 = 0.7125 | 1.045
298.15 K, m1 = 0.9849 | 1.075
298.15 K, m1 = 0.9867 | 1.073
303.15 K, m1 = 0.2074 | 0.972
303.15 K, m1 = 0.2079 | 0.9707
303.15 K, m1 = 0.3266 | 0.9871
303.15 K, m1 = 0.3271 | 0.9863
303.15 K, m1 = 0.5022 | 1.015
303.15 K, m1 = 0.5029 | 1.014
303.15 K, m1 = 0.6864 | 1.033
303.15 K, m1 = 0.6868 | 1.034
303.15 K, m1 = 0.7946 | 1.057
303.15 K, m1 = 0.7955 | 1.057
303.15 K, m1 = 1.028 | 1.103
303.15 K, m1 = 1.029 | 1.102

— the NIST ThermoML archive (doi:10.1016/j.fluid.2010.03.012)
